A short description of data set [1]: Determination of LC Log P (experimental). Type of data set: physicochemical. The conditions noted are these: for logP: diacylhydrazine log P standards (log P known experimentally). The method, then: Liquid chromatography retention times (RT) are measured for each substance using the conditions described below. A linear equation is derived relating RT to log P is developed from the data for the log P standards. The log P for the test compound is calculated from the log P/retention time equation.

Data set [2] has as its target T1, Bombyx mori EcR (VP16 fusion, CVBE switch construct) (Bombyx mori, UniProt P49881).
T1 sequence (P49881 86-606): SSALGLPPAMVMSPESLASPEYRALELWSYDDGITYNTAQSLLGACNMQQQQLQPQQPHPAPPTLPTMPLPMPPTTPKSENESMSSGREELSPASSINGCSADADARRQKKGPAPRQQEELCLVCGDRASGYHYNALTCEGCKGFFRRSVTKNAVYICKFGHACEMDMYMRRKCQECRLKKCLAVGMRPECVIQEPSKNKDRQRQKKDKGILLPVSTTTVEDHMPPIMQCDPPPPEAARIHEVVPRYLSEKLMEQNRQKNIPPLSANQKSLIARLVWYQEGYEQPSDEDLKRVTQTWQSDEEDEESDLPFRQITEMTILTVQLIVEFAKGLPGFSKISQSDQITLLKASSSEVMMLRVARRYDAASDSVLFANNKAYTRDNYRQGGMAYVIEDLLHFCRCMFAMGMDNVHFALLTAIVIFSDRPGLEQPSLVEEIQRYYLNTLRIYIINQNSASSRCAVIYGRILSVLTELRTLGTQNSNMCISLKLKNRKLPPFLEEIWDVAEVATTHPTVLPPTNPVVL
T1 sequence (P19793 1-462 partner): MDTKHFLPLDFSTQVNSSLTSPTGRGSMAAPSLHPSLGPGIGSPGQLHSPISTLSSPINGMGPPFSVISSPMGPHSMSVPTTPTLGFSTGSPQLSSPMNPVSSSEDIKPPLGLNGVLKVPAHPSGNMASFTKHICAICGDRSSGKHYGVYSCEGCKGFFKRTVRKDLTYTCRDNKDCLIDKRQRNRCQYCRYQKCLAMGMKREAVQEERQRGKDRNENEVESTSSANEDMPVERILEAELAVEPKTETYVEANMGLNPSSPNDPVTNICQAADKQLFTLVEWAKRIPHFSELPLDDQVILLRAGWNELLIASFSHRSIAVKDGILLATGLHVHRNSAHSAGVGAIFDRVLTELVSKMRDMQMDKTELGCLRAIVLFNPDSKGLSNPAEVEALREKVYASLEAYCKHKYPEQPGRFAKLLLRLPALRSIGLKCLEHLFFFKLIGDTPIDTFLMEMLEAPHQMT
Nature of the data set: Z3 Assay (HEK-293 cells with CVBE and 6XEcRE LacZ, β-galactosidase reporter). The note with it: for fold induction at 3.3 µM: HEK293, read-out: Fold Induction, Z3 Assay, 3.3 uM; for fold induction at 33 µM: HEK293, read-out: Fold Induction, Z3 Assay, 33 uM; for Z3 assay Rel Max FI: maximum fold induction at any concentration relative to that of GS-E ligand; for Fold Induction, Z3 Assay, 3.3 uM: 3.3 uM ligand; for Fold Induction, Z3 Assay, 3.3 uM / Fold Induction, Z3 Assay, 33 uM: ligand treated / DMSO treated cells; for Fold Induction, Z3 Assay, 33 uM: 33 uM ligand.

The mark [3] stands for this setting: from LC retention time against log P standards, read-out: LC LogP (exp).
Where [4] appears, read: read-out: Z3 assay EC50, HEK-293 Z3 cells, β-galactosidase reporter, average of two wells.

Where two headings read alike, the source gives them in different places.

Broadly, the EC50 is the concentration that produces a half-maximal response. On to `COc1cc(C(=O)N(NC(=O)c2ccc3c(c2C)OCCO3)C(C)(C)C#N)cc(OC)c1C` [RG-115092, N-(5-methyl-1,4-benzodioxan-6-carbonyl)-N′-(2-cyano-2-propyl)-N′-(3,5-dimethoxy-4-methylbenzoyl)hydrazine], for which the chromatographic logP in data set [1] (setting [3]) is 3.5. Further, in data set [2], the EC50 came to 37 nM, the fold induction at 3.3 µM turned out to be 351 and the fold induction at 33 µM worked out at 302. Besides, the “Z3 assay Rel Max FI” value in data set [2] (HEK-293 Z3 cells) came to 0.917.

Consider `CCc1c(C(=O)NN(C(=O)c2cc(C)cc(Cl)c2)C(C)(C)C)ccc2c1OCCO2` [RG-101494, N-(5-ethyl-1,4-benzodioxan-6-carbonyl)-N′-(tert-butyl)-N′-(3-chloro-5-methylbenzoyl)hydrazine], for which the chromatographic logP in data set [1] (setting [3]) is 4.3. Further, in data set [2], the EC50 was 79 nM, the fold induction at 3.3 µM is 832 and the fold induction at 33 µM turned out to be 384. In addition, the “Z3 assay Rel Max FI” value in data set [2] (HEK-293 Z3 cells) is listed as 1.093.

`Cc1cc(C)cc(C(=O)N(NC(=O)c2ccc3c(c2C)OCCO3)C(C)(C)C)c1` [RG-102317, N-(5-methyl-1,4-benzodioxan-6-carbonyl)-N′-(tert-butyl)-N′-(3,5-dimethylbenzoyl)hydrazine] came in with a chromatographic logP in data set [1] of 3.6. In addition, in data set [2], the fold induction at 3.3 µM amounted to 416 and the fold induction at 33 µM came out at 1500.

Regarding `CCc1ccc(C(=O)NN(C(=O)c2cc(C)cc(C)c2)C(C)(C)C)c(F)c1` [RG-101523, 3,5-Dimethyl-benzoic acid N-tert-butyl-N′-(4-ethyl-2-fluoro-benzoyl)-hydrazide], the chromatographic logP in data set [1] (setting [3]) was found to be 4.35. In data set [2], the EC50 is 242 nM, the fold induction at 3.3 µM is 704 and the fold induction at 33 µM is 596.

One may read the logP as the decadic logarithm of the partition coefficient of the neutral form, usually between octanol and water. Compound `CCc1c(OC)cccc1C(=O)NN(C(=O)c1cc(C)cc(C)c1)C(C)(C)C` [RG-102240, N-(3-methoxy-2-ethylbenzoyl)-N′-(3,5-dimethylbenzoyl)-N′-tert-butylhydrazine] displayed a logP in data set [1] of 4.2. The chromatographic logP in data set [1] (setting [3]) was 4.2. This compound also yielded an EC50 in data set [2] of 286 nM. Also, the “Z3 assay Rel Max FI” value in data set [2] (HEK-293 Z3 cells) was 1.

Take `CCc1c(OC)cccc1C(=O)NN(C(=O)c1cc(C)cc(C=NNC(=O)C(N)=O)c1)C(C)(C)C` [RG-115613, oxamic hydrazone of N-(3-formyl-5-methyl-benzoyl)-N-tert-butyl-N′-(2-ethyl-3-methoxy-benzoyl) hydrazide]: in data set [1] (from LC retention time against log P standards), the “LC LogP (exp)” value was 2.8. Also, in data set [2] (average of two wells), the “Fold Induction, Z3 Assay, 3.3 uM” value is recorded as 991 and the “Fold Induction, Z3 Assay, 33 uM” value is reported as 1469. In data set [2] (HEK-293 Z3 cells), the “Z3 assay Rel Max FI” value came to 0.964. In data set [2] (setting [4]), the EC50 came to 589 nM.

Regarding `COc1cc(C(=O)N(NC(=O)c2ccc3c(c2C)OCCO3)C(C)(C)C)cc(OC)c1O` [RG-115009, 4-Hydroxy-3,5-dimethoxy-benzoic acid N-tert-butyl-N′-(5-methyl-2,3-dihydro-benzo[1,4]dioxine-6-carbonyl)-hydrazide], in data set [1] (setting [3]), the chromatographic logP was 1.9. In data set [2], the EC50 came out at 3310 nM, the fold induction at 3.3 µM was 35 and the fold induction at 33 µM came to 472. Moreover, the “Z3 assay Rel Max FI” value in data set [2] (HEK-293 Z3 cells) was 0.916.

On to `CC(C)(C)N(NC(=O)c1ccc(Cl)cc1)C(=O)c1ccccc1` [RG-100864], for which the logP in data set [1] was determined as 3.2. Further, in data set [2], the EC50 came out at 2240 nM, the fold induction at 3.3 µM was determined as 63 and the fold induction at 33 µM came to 840.

Take `COc1cccc(C(=O)NN(C(=O)c2cc(C)cc(C)c2)C(C)(C)C)c1C` [RG-102398]: the logP in data set [1] worked out at 3.7. Besides, in data set [2], it took 95 nM to reach a half-maximal effect (EC50), the fold induction at 3.3 µM was 535 and the fold induction at 33 µM came out at 1970. The “Z3 assay Rel Max FI” value in data set [2] (HEK-293 Z3 cells) came to 1.027.

As for `COc1ccc(C(=O)N(NC(=O)c2ccc3c(c2C)OCCO3)C(C)(C)C)c(OC)n1` [RG-115517, 2,6-dimethoxy-nicotinic acid N-tert-butyl-N′-(5-methyl-2,3-dihydro-benzo[1,4]dioxine-6-carbonyl)-hydrazide], in data set [1] (setting [3]), the chromatographic logP is 3.15. In data set [2], the EC50 was determined as 89 nM and the fold induction at 3.3 µM came to 408. The “Z3 assay Rel Max FI” value in data set [2] (HEK-293 Z3 cells) was 0.923.

For the compound `Cc1c(C(=O)NN(C(=O)c2cc(F)c(F)c(F)c2)C(C)(C)C)ccc2c1CCCO2` [RG-115575, 3,4,5-Trifluoro-benzoic acid N-tert-butyl-N′-(5-methyl-chroman-6-carbonyl)-hydrazide], in data set [1] (setting [3]), the chromatographic logP was determined as 4.1. For the same compound, in data set [2], it took 102 nM to reach a half-maximal effect (EC50), the fold induction at 3.3 µM was determined as 282 and the fold induction at 33 µM was 785. Moreover, in data set [2] (HEK-293 Z3 cells), the “Z3 assay Rel Max FI” value came out at 0.886.

Take `COc1cccc(C(=O)NN(C(=O)c2cc(C)ccc2[N+](=O)[O-])C(C)(C)C)c1C` [RG-100569]: in data set [2] (average of two wells), the “Fold Induction, Z3 Assay, 3.3 uM” value came out at 754 and the “Fold Induction, Z3 Assay, 33 uM” value worked out at 457. Also, the “Z3 assay Rel Max FI” value in data set [2] (HEK-293 Z3 cells) is reported as 0.835. Besides, the EC50 in data set [2] (setting [4]) was 98 nM.

`CCc1c(OC)cccc1C(=O)NN(C(=O)c1cc(C)cc(C)c1)C(C)(C)C(=O)O` [RG-115044, 2-[N-(3,5-Dimethyl-benzoyl)-N′-(2-ethyl-3-methoxy-benzoyl)-hydrazino]-2-methyl-propionic acid]: in data set [2], the EC50 was more than 50000 nM, the fold induction at 3.3 µM came to 1 and the fold induction at 33 µM turned out to be 7. Further, in data set [2] (HEK-293 Z3 cells), the “Z3 assay Rel Max FI” value was found to be 1.08.

As to `CCC(N(NC(=O)c1cccc(C)c1C)C(=O)c1cc(C)cc(C)c1)C(C)(C)C` (stereo not drawn) [RG-103309, 3,5-dimethyl-benzoic acid N′-(2,3-dimethyl-benzoyl)-N-(1-ethyl-2,2-dimethyl-propyl)-hydrazide], in data set [2], the midpoint of the response, the EC50, lay at 78 nM; the fold induction at 3.3 µM is 1160; the fold induction at 33 µM amounted to 591. Besides, in data set [2] (HEK-293 Z3 cells), the “Z3 assay Rel Max FI” value turned out to be 0.950.

For `CCc1c(OC)cccc1C(=O)NN(C(=O)c1c(F)cccc1F)C(C)(C)C` [RG-115033], in data set [2] (average of two wells), the “Fold Induction, Z3 Assay, 3.3 uM” value is 24 and the “Fold Induction, Z3 Assay, 33 uM” value amounted to 388. For the same compound, the “Z3 assay Rel Max FI” value in data set [2] (HEK-293 Z3 cells) worked out at 0.575. Besides, the EC50 in data set [2] (setting [4]) was 16200 nM.

As to `CCc1c(OC)cccc1C(=O)NN(C(=O)c1cc(C)cc(C)c1)C(C)(C)C=NNC(N)=O` [RG-115653, semicarbazide of 2-ethyl-3-methoxy-benzoic acid N′-(3,5-dimethyl-benzoyl)-N′-(1,1-dimethyl-2-oxo-ethyl)-hydrazide], in data set [2] (average of two wells), the “Fold Induction, Z3 Assay, 33 uM” value is 666.

As to `CCc1c(C(=O)NN(C(=O)c2ccc(F)c(F)c2F)C(C)(C)C)ccc2c1OCCO2` [RG-115580], in data set [2] (average of two wells), the “Fold Induction, Z3 Assay, 33 uM” value came to 615. Besides, the concentration for a half-maximal effect (EC50) in data set [2] (setting [4]) was 182 nM.

In the case of `CCc1c(OC)cccc1C(=O)NN(C(=O)c1cc(C)cc(C)c1)C(C)(C)C=O` [RG-115407, 2-ethyl-3-methoxy-benzoic acid N′-(3,5-dimethyl-benzoyl)-N′-(1,1-dimethyl-2-oxo-ethyl)-hydrazide], in data set [2], the response was half-maximal at 347 nM (EC50), the fold induction at 3.3 µM was determined as 391 and the fold induction at 33 µM is 879. Besides, the “Z3 assay Rel Max FI” value in data set [2] (HEK-293 Z3 cells) is on record as 0.906.

On to `Cc1c(C(=O)NN(C(=O)c2ccc(F)cc2)C(C)(C)C)ccc2c1CCCO2` [RG-115118], for which, in data set [2] (average of two wells), the “Fold Induction, Z3 Assay, 3.3 uM” value was found to be 90 and the “Fold Induction, Z3 Assay, 33 uM” value was 1160. Further, the “Z3 assay Rel Max FI” value in data set [2] (HEK-293 Z3 cells) came to 0.969. For the same compound, the EC50 in data set [2] (setting [4]) amounted to 234 nM.

For the compound `CCc1c(OC)cccc1C(=O)NN(C(=O)c1cc(C)cc(COC(C)=O)c1)C(C)(C)C` [RG-115223], in data set [2] (average of two wells), the “Fold Induction, Z3 Assay, 3.3 uM” value is 323 and the “Fold Induction, Z3 Assay, 33 uM” value was determined as 1299. In data set [2] (HEK-293 Z3 cells), the “Z3 assay Rel Max FI” value worked out at 0.925. Also, the EC50 in data set [2] (setting [4]) is 1900 nM.

With `COc1cccc(C(=O)NN(C(=O)c2cc(C)cc(C)c2)C(C)(C)C)c1[N+](=O)[O-]` [RG-100568], in data set [2] (average of two wells), the “Fold Induction, Z3 Assay, 3.3 uM” value was determined as 276 and the “Fold Induction, Z3 Assay, 33 uM” value came out at 1193. The “Z3 assay Rel Max FI” value in data set [2] (HEK-293 Z3 cells) was found to be 0.855. Also, the EC50 in data set [2] (setting [4]) amounted to 3310 nM.

(Values after patent US9102648B1, “Bioavailable diacylhydrazine ligands for modulating the expression of exogenous genes via an ecdysone receptor complex” (Intrexon Corporation, priority 2003, dated 2015).)
